This is an account of results in US9056140B2, “Pharmaceutical compound” (priority 2007, dated 2015).

The conditions of data set [1]: cited from earlier work.
Another data set has as its system MCF-7 tumors. Description: In vivo anti-tumor activity, MCF-7 tumors in nude female mice. Conditions: i.v. retro-orbital, days 36 and 43. Here is the method:
Animals received intravenous treatment via the retro-orbital route on days 36 and 43 post challenge.
Thirty (30) nude female mice (nu/nu), 6-8 weeks old, were challenged subcutaneously with 2×10^7 MCF-7 cells delivered in combination with Matrigel (Becton Dickinson) (200 μl total volume). Weight loss and tumor growth (calculated by taking two perpendicular measurements and applying the formula [Π*((min measurement)/2)^2*(maximum measurement)]) were monitored daily until the end of the study.
Statistical differences were calculated using non-parametric Mann-Whitney assays and considered significant if p<0.05.
Control animals received either PBS or the same doses of raloxine via the same route.
Due to the natural susceptibility of MCF-7 cells to estrogen production, daily tumor volume variation in the nude mice model used follows sinusoidal pattern with a period of approximately 4/5 days (see FIG. 3). The duration of this period correlates with the duration of the oestrus cycle in mice (i.e. 4/5 days). As a result, and in order to facilitate experimental analysis, FIG. 3 represents tumor volume variations for each experimental group both as daily changes and as moving averages (i.e. a trend line) for overlapping 5 day periods (i.e. overlap is 4 days per point).

For data set [2], the system named is OVCAR-3 cells (ovarian ER positive cell line). The data set can be described thus: LDH release assay, cell survival of OVCAR-3 monolayers. The class given is cell-based, human. Conditions: FIG. 2; raloxifene 1000 nM. How it is done:
(§1) Cell survival (%) for each cell line is calculated according to a standard lactate dehydrogenase (LDH) release assay, where […] (0% survival) corresponds to cells treated with 50 μg/ml of Mitomycin C and […] (100%) survival corresponds to cells treated only with complete medium.
Finally, the NIH:OVCAR-3 cells (ATTC, catalogue no. HTB-161) was isolated from an ovary adenocarcinoma in a person and it expresses the estrogen receptor. The cell line was maintained in RPMI-1640 (Sigma) supplemented with 2 mM L-Gln (Sigma), 10 mM HEPES (Sigma), 1 mM Na-Pyr (Sigma), 0.01 mg/ml Bovine Insulin (Sigma), 100 IU Penicillin, 100 μg/ml Streptomycin (Sigma) and, as complete medium, 20% FCS (Sigma).
(§2) Cultures of MCF-7, HCC-1143 and OVCAR-3 were harvested at approximately 80% confluency by trypsinisation and after washing once in serum free medium, used to seed Flat bottom 96-well plates (Nunc) with 5×10^3 cells per well in 200 μl of complete medium. […]
(§3) The detection reagent from the CytoTox 96® Non-Radioactive Cytotoxicity Assay kit (Promega) was prepared as per manufacturer's instruction and 50 μl/well of detection reagent was added to all wells. After 30 minutes incubation in the dark at room temperature, the reaction was stopped by adding 50 μl/well of Stop solution to all wells and the absorbance of each well at 490 nm was established.
(LDH in the medium is a marker of cell lysis.)

For data set [3], the system named is MCF-7 cells (ER-positive breast cancer cell line). Description: LDH release assay, cell survival of MCF-7 monolayers. The class given is cell-based, human. Conditions: FIG. 2; saporin 500 nM, raloxifene 1000 nM, alone or as admixture. Here is the method: as §1
The MCF-7 cell line (ECACC, catalogue no. 86012803) was isolated from a breast adenocarcinoma in a person and it expresses the estrogen receptor. The cell line was maintained in Minimum Essential Medium (Sigma) supplemented with 2 mM L-Gln (Sigma), 1% Non Essential amino acids (Sigma), 100 IU Penicillin, 100 μg/ml Streptomycin (Sigma) and, as complete medium, 10% Foetal Calf Serum (FCS) (Sigma).
as §2, §3

The subject of data set [4] is HCC-1143 cells (ER-negative breast cancer cell line). Description: LDH release assay, cell survival of HCC-1143 monolayers. Conditions: FIG. 2; raloxifene 1000 nM. The class given is cell-based, human. Here is the method:
as §1
The cell line was maintained in RPMI-1640 (Sigma) supplemented with 2 mM L-Gln (Sigma), 10 mM HEPES (Sigma), 1 mM Na-Pyr (Sigma), 100 IU Penicillin, 100 μg/ml Streptomycin (Sigma) and, as complete medium, 10% FCS (Sigma).
Cultures of MCF-7, HCC-1143 and OVCAR-3 were harvested at approximately 80% confluency by trypsinisation and after washing once in serum free medium, used to seed Flat bottom 96-well plates (Nunc) with 5×10^3 cells per well in 200 μl of complete medium.
Following 18 hours incubation at 37° C., the test compounds were removed and 200 μl/well of complete medium added to each well. […]
as §3

Setting [5] is: patients taking raloxifene daily.

For `O=C(c1ccc(OCCN2CCCCC2)cc1)c1c(-c2ccc(O)cc2)sc2cc(O)ccc12` [Raloxifene], the “reducing the incidence of estrogen receptor positive breast cancer” value in data set [1] (clinical trial, vs tamoxifen) is reported as “as effective as tamoxifen”. For the same compound, in data set [1] (setting [5]), the “fewer blood clots than women taking tamoxifen daily” value is listed as 29% and the “fewer uterine cancers than women taking tamoxifen daily” value is 36%. The “tumor growth compared to PBS control group” value in the data set with MCF-7 tumors (peak blood concentration 0.1 nM conjugate or 0.1 ng/ml raloxifene) is “did not result in any changes”. Moreover, in the data set on MCF-7 tumors (peak blood concentration 0.2 nM conjugate or 0.2 ng/ml raloxifene), the “tumor growth compared to PBS control group” value is recorded as “did not result in any changes”. In the data set on MCF-7 tumors (peak blood concentration 0.4 nM conjugate or 0.4 ng/ml raloxifene, vs PBS), the “tumor volume / tumor growth” value is “maintenance or slight reduction of tumor size over time”. For the same compound, the “lethal effect on OVCAR-3 cells” value in data set [2] is “not against”. Besides, in data set [3], the “lethal effect on MCF-7 cells” value is on record as “selective significant (p<0.05) effect”. Also, the “lethal effect on HCC-1143 cells” value in data set [4] is given as “not against”.
For the compound saporin, the “lethal effect on MCF-7 cells” value in data set [3] is on record as “no significant (p>0.05) lethal effect”.
